Data reported in patent US20060074049A1, “Use of heparinoids for treatment and prevention of dementia” (priority 2004, published 2006).

Columns and labels:
human NPC [1] = test: Plating assay: NPC colony formation / quiescence; type: cell-based
Protocol: Cells and Materials: Normal human NPC were obtained from Clonetics Corp (San Diego, Calif.), and grown in neural progenitor maintenance medium (Clonetics) with human recombinant basic fibroblast growth factor, epidermal growth factor, neural survival factors and antibiotics. These cells were derived as described previously (Svendsen (1998) J. Neurosci. Meth. 85:141-152).
Plating Assay: On day 0, HIV coat proteins at a concentration of 800 pM, or CSF at a concentration of 2% was added to cultures of NPC. Each protein or CSF sample was tested in triplicate. Cultures were incubated for seven days, and then cells were plated onto 24 well polyethylene-imine coated plates. The number of cell colonies having more than 20 cells with typical neuronal morphology was counted for each well after 7 days in culture. Determinations of colony inhibition for all proteins and CSF samples were done on each of three different lots of NPC. Each lot was passaged 1-3 times before testing, with no differences seen between this number of passages.
The ability of HIV coat proteins to induce quiescence in human NPC was tested using NPC in the form of neurospheres. Typically, neurospheres with quiescent cells fail to attach and differentiate, while neurospheres containing proliferating cells will attach and differentiate into neurons and astrocytes. To determine whether only those coat proteins that signal through either the CXCR4 receptor or the […] receptor would induce quiescence of NPC, purified recombinant coat proteins from several different strains of HIV were tested. These included the R5 strain CM235, the X4 strain IIIb, and the clade E/A recombinant R5 strain 93TH975 (Gao et al. (1996) J. Virol. 70:1651-1667). […] The number of colonies containing more than 20 cells with typical neuronal morphology was counted after 7 days in culture. […] None of the coat proteins induced cell death in NPC, as determined by trypan blue staining (>95% viability in all coat-protein treated cultures). […]

human neurospheres (NPC) = test: Block of IIIb coat protein effect on NPC proliferation by recombinant apolipoproteins; type: cell-based; conditions: 20 nM recombinant apolipoprotein
Protocol: FIG. 6 is a graph showing the number of BrdU labeled NPC in samples treated with recombinant HIV gp120 from the IIIb strain, which was pre-incubated with or without recombinant ApoE3 and ApoE4.
A risk factor for the development of HIV dementia is homozygosity for the apolipoprotein E4 genotype (Corder et al. (1998) Nat. Med. 4:1182-1184). In Herpes simplex virus infection, it has been speculated that apo E proteins compete with HSV for binding to HS, and that apo E4 cannot compete as efficiently as apo E3 (Itzhaki et al. (1998) Nat. Med. 4:1344). To determine whether apolipoproteins might compete with HIV coat proteins for binding to cell surface HS on NPC, human neurospheres were incubated with the IIIb coat protein, and the ability of recombinant apolipoproteins to block the inhibitory effect of the coat protein on NPC proliferation was tested. […] Thus, apolipoproteins compete with HIV coat proteins for cell surface binding.

p21 and p27 = p21 and p27 expression in NPC by immunohistochemistry; type: cell-based, human
Protocol: For p21 and p27 detection, NPC were grown with recombinant coat proteins for 24 hours. Cells were fixed and monoclonal antibodies to p21 or p27 (Pharmingen) were added. A secondary antibody conjugated to Cy3 was used for detection.
NCP were incubated with 800 pM recombinant coat proteins, and expression of p21 and p27 was analyzed using immunohistochemistry.

ERK = ERK phosphorylation in NPC by flow cytometry; type: cell-based, human
Protocol: Signaling: Isolated NPC were incubated with coat proteins for 10 minutes, placed on ice, fixed, permeabilized with saponin, and stained with fluorescein isothiocyanate-(FITC-) conjugated phosphospecific monoclonal antibodies to ERK (Santa Cruz Biotechnology, Santa Cruz, Calif.). Cells were then analyzed by flow cytometry. Activity of PP2A was inhibited by incubation with okadaic acid (Calbiochem, San Diego, Calif.) at 2.5 μM for 1 hour prior to the addition of coat proteins. Experiments were performed at least twice, and determinations were performed in triplicate.
Proliferation of NPC is increased by signals that increase ERK phosphorylation (Learish et al. (2000) Develop. Brain Res. 122:97-109). […] NPC were incubated with a panel of HIV coat proteins and assayed to determine the fraction of cells with phosphorylated ERK. The CM235 and IIIb coat proteins inhibited ERK phosphorylation by 34% and 77% respectively (p<0.05 for both; FIGS. 2A and 2B). […] Thus, HIV coat proteins are able to activate a cellular phosphatase by signaling through chemokine receptors and reduce ERK phosphorylation, leading to reduced NPC proliferation.

human NPC [2] = test: BrdU incorporation into NPC neurospheres by flow cytometry; type: cell-based
From the text: FIG. 1 is a graph showing the number of NPC colonies displaying outgrowth of cells with neuronal morphology after treatment with coat proteins from the HIV strains 93TH975, CM235 and IIIb. The mean+/−standard error is shown. PTX=pertussis toxin, Anti V3=monoclonal antibody to the V3 loop region of gp120. FIG. 1B is a series of graphs showing the level of bromodeoxyuridine (BrdU) incorporation into NPC neurospheres treated with coat proteins from the HIV strains 93TH975, CM235 and IIIb. Shaded area=control cells, solid line=treated cells.
To quantitate the ability of the coat proteins to cause cells to become quiescent, the number of attached, differentiated colonies was counted. […] In contrast, the 93TH975 coat protein had no effect. In order to confirm that cell proliferation was indeed inhibited by the coat proteins, cultures of NPC were labeled with BrdU, and BrdU incorporation was measured by flow cytometry.

[3] = tested on: NPC in human hippocampal slices; test: Hippocampal slice cultures, BrdU positive NPC; type: cell-based; conditions: coat protein 1 nM; p<0.001
Protocol: Hippocampal slice cultures: Discarded hippocampal tissue was obtained from patients undergoing corrective surgery for seizures as previously described (Roy et al. (2000) Nat. Med. 6:271-277; and Pincus et al. (1998) Neurosurg. 42:858-868). Tissue was obtained within 1 hour of removal and cultured as described (Stoppini et al. (1991) J. Neurosci, Meth. 37:173-182). Briefly, tissue was sliced to 200 μm thickness using a Brendel-Vitron tissue slicer (Vitron, Inc., Tucson, Ariz.). Slices were placed in a Transwell insert (Costar, Corning, N.Y.) and cultured in neural progenitor maintenance medium (NPMM) with or without chemokines (500 ng/ml), HIV coat proteins (1 nM) or CSF (2%) added on day 0. Each sample was tested in triplicate. The entire experiment was performed at least twice with identical results. Slices were labeled with BrdU on day 5 of culture, and harvested for immunohistochemistry on day 7 by freezing slices in OCT. Five-micron sections were made, and BrdU incorporation was detected using a BrdU in situ kit (Pharmingen, San Diego, Calif.). For dual staining of BrdU and Musashil, a polyclonal antibody to Musashil (Chemicon International, Temecula, Calif.) was used at a dilution of 1:10. Apoptotic cells were detected using a TUNEL assay (Oncogene, Boston, Mass.). […]

Compound: pertussis toxin [reference compound]
- effect on the inhibitory effects of CM235 and IIIb coat proteins on NPC (human NPC [1]; added to NPC cultures in addition to coat proteins): eliminated

Compound: apo E4: recombinant apolipoprotein E4
- block of IIIb coat protein inhibition of NPC proliferation (human neurospheres (NPC)): did not

Compound: apo E3: recombinant apolipoprotein E3
- block of IIIb coat protein inhibition of NPC proliferation (human neurospheres (NPC)): prevented the IIIb coat protein from inhibiting NPC proliferation

Compound: c1cc(CN2CCCNCCNCCCNCC2)ccc1CN1CCCNCCNCCCNCC1 [AMD3100, reference compound]
- effect on induction of p21 and p27 by the IIIb coat protein (p21 and p27; with IIIb coat protein): blocked

Compound: C=C1[C@@H](O)[C@@H]2O[C@]3(CC[C@H](/C=C/[C@@H](C)[C@@H]4CC(C)=C[C@@]5(O[C@H](C[C@@](C)(O)C(=O)O)CC[C@H]5O)O4)O3)CC[C@H]2O[C@@H]1[C@@H](O)C[C@H](C)[C@H]1O[C@@]2(CCCCO2)CC[C@H]1C [okadaic acid, reference compound]
- effect on inhibition of ERK phosphorylation induced by CM235 and IIIb coat proteins (ERK; 2.5 μM for 1 hour prior to coat proteins): blocked the inhibition of ERK phosphorylation

Compound: IIIb: purified recombinant HIV coat protein (gp120) of the X4 strain IIIb
- BrdU incorporation into NPC, tested 7 days after addition of coat proteins (human NPC [2]; 7 days after addition): incorporation similar to controls
- BrdU incorporation into NPC compared with controls (human NPC [2]; coat protein treated NPC): less BrdU incorporation
- induction of quiescence / effect on attached differentiated NPC colonies (in words) (human NPC [1]; coat protein 800 pM for 7 days): caused NPC to enter a quiescent state
- reduction of the number of differentiated NPC colonies (human NPC [1]; coat protein 800 pM for 7 days, colonies counted after 7 days on coated plates, p<0.001): 74%
- expression of p21 and p27 in NPC (p21 and p27; 800 pM recombinant coat protein): induced expression of p21 and p27
- reduction in fraction of NPC with phosphorylated ERK (ERK; NPC incubated with coat protein 10 minutes, p<0.05 for CM235 and IIIb, 93TH975 non-significant): 77%
- reduction of proliferation of NPC (BrdU positive cells) in hippocampal slices [3]: 70%
